Holding throughout (type): functional
Test [1] has as its system Staphylococcus aureus. Description: Potency index, ratio of CPFX MIC to compound MIC for Staphylococcus aureus 1199B.
Test [2] deals with Staphylococcus aureus. As to the kind of experiment: Potency index, ratio of CPFX MIC to compound MIC for Staphylococcus aureus 1199-3.
In test [3] the test system is Staphylococcus aureus. As to the kind of experiment: Potency index, ratio of CPFX MIC to compound MIC for Staphylococcus aureus 1199.
The subject of test [4] is Staphylococcus aureus. Description: Antibacterial activity against Staphylococcus aureus.
The subject of test [5] is Staphylococcus aureus. As to the kind of experiment: Potency index, ratio of NRFX MIC to compound MIC for Staphylococcus aureus.
In test [6] the test system is Staphylococcus aureus. Description: Potency index, ratio of CPFX MIC to compound MIC for Staphylococcus aureus.
For test [7], the system named is Staphylococcus aureus. As to the kind of experiment: Potency index, ratio of GTFX MIC to compound MIC for Staphylococcus aureus.
In test [8] the test system is Staphylococcus aureus. As to the kind of experiment: Potency index, ratio of LMFX MIC to compound MIC for Staphylococcus aureus.
In test [9] the test system is Staphylococcus aureus. Description: Selectivity ratio of MIC for Staphylococcus aureus 209P JC1 to MIC for methicillin-resistant Staphylococcus aureus.
A short description of test [10]: Selectivity ratio of MIC for Micrococcus luteus ATCC 9341 to MIC for methicillin-resistant Staphylococcus aureus.
The subject of test [11] is Staphylococcus aureus. As to the kind of experiment: Antibacterial activity against vancomycin-resistant Staphylococcus aureus GISA 992.
Test [12] deals with Staphylococcus aureus. As to the kind of experiment: Antibacterial activity against Staphylococcus aureus 1199B.
Test [13] concerns Staphylococcus aureus. As to the kind of experiment: Antibacterial activity against Staphylococcus aureus ATCC 6538P after 18 hrs by agar dilution assay. A general note: In agar dilution, organisms are placed on agar that contains the substance at set levels.
For test [14], the system named is Staphylococcus aureus. Description: Antibacterial activity against methicillin-resistant Staphylococcus aureus 494.
Test [15] has as its system Staphylococcus epidermidis. Description: Antibacterial activity against Staphylococcus epidermidis after 18 hrs by agar dilution assay.
In test [16] the test system is Staphylococcus aureus. Description: Antibacterial activity against Staphylococcus aureus 1199-3.
The test system of test [17] is Staphylococcus aureus. As to the kind of experiment: Antibacterial activity against Staphylococcus aureus 1199.
Test [18] has as its system Staphylococcus epidermidis. Description: Potency index, ratio of enoxacin MIC to compound MIC for Staphylococcus epidermidis.
Test [19] relates to Staphylococcus epidermidis. Description: Potency index, ratio of CPFX MIC to compound MIC for Staphylococcus epidermidis.
The subject of test [20] is Staphylococcus epidermidis. Description: Potency index, ratio of NRFX MIC to compound MIC for Staphylococcus epidermidis.
Test [21] concerns Staphylococcus aureus. As to the kind of experiment: Potency index, ratio of enoxacin MIC to compound MIC for Staphylococcus aureus ATCC 6538P.
The subject of test [22] is Staphylococcus aureus. As to the kind of experiment: Potency index, ratio of CPFX MIC to compound MIC for Staphylococcus aureus ATCC 6538P.
Test [23] relates to Staphylococcus aureus. As to the kind of experiment: Potency index, ratio of NRFX MIC to compound MIC for Staphylococcus aureus ATCC 6538P.

In brackets after ≈: the same amount, converted by molar mass.

Consider `CCn1cc(C(=O)O)c(=O)c2cnc(N3CCN(Cc4ccc(CN5CCN(c6cc7c(cc6F)c(=O)c(C(=O)O)cn7C6CC6)CC5)cc4)CC3)nc21`, for which the Ratio in the test with Staphylococcus aureus [1], in the test with Staphylococcus aureus [2] and in the test on Staphylococcus aureus [3] was more than 4 each time.

Broadly, the MIC is the least concentration at which growth counts as inhibited. As for `CCn1cc(C(=O)O)c(=O)c2cc(F)c(N3CCN(CN4C(=O)/C(=N\c5ncc(Cc6cc(OC)c(OC)c(OC)c6)c(N)n5)c5cc(F)ccc54)C(C)C3)c(F)c21` (stereo unspecified), the MIC in the test on Staphylococcus aureus [4] (Staphylococcus aureus, read-out: MIC) was 0.0095 µg/mL (≈ 0.0119 µM). Further, the Ratio in the test with Staphylococcus aureus [5], in the test with Staphylococcus aureus [6], in the test on Staphylococcus aureus [7] and in the test with Staphylococcus aureus [8] was 2 - 4111 each time.

The compound `COc1c(N2CCNC(C)C2)c(F)cc2c(=O)c(C(=O)O)cn(C3CC3)c12` (stereo unspecified) [GATIFLOXACIN] yielded an MIC against Staphylococcus aureus [4] of 0.02 to 39.06 µg/mL.

`C=c1sc2c(C(=O)O)c(=O)c3cc(F)c(-c4ccc(N)cc4)cc3n12`: the Ratio entry was “>=16” in the test with Staphylococcus aureus [9] and more than 16 in test [10].

The compound `CCn1cc(C(=O)O)c(=O)c2cc(F)c(N3CCNC(C)C3)c(F)c21` (stereo unspecified) [LOMEFLOXACIN] returned an MIC in the test on Staphylococcus aureus [4] of 0.02 to 39.06 µg/mL.

Take `O=C(O)c1cn(C2CC2)c2cc(N3CCNCC3)c(F)cc2c1=O` [CIPROFLOXACIN]: the MIC lay within 0.125 to 32 µg/mL (≈ 0.377 to 96.6 µM) with Staphylococcus aureus [11]; 0.125 to 32 µg/mL (≈ 0.377 to 96.6 µM) with Staphylococcus aureus [12]; 0.25 to 1 µg/mL (≈ 0.754 to 3.02 µM) in the test with Staphylococcus aureus [13]; 0.02 to 39.06 µg/mL in the test with Staphylococcus aureus [4]; 0.125 to 32 µg/mL (≈ 0.377 to 96.6 µM) in the test with Staphylococcus aureus [14]; 0.25 to 1 µg/mL (≈ 0.754 to 3.02 µM) in test [15]. In addition, the MIC in the test with Staphylococcus aureus [16] and in the test with Staphylococcus aureus [17] was 0.125 to 32 µg/mL (≈ 0.377 to 96.6 µM) in each case.

On to `Cn1c([N+](=O)[O-])cnc1-c1nnc(N2CCN(c3cc4c(cc3F)c(=O)c(C(=O)O)cn4C3CC3)CC2)s1`, for which the Ratio (in test [18]; in test [19]; in [20]; with Staphylococcus aureus [21]; in the test with Staphylococcus aureus [22]; in the test on Staphylococcus aureus [23]) was 32 - 128 in each case. For the same compound, the MIC (against Staphylococcus aureus [13]; in [15]) was 0.008 µg/mL (≈ 0.0148 µM) each time.

Turning to `CCn1cc(C(=O)O)c(=O)c2cc(F)c(N3CCNCC3)cc21` [NORFLOXACIN], the MIC was in the range of 0.25 to 1 µg/mL (≈ 0.783 to 3.13 µM) in the test on Staphylococcus aureus [13], 0.02 to 39.06 µg/mL against Staphylococcus aureus [4] and 0.25 to 1 µg/mL (≈ 0.783 to 3.13 µM) in test [15].

(Values after ChEMBL document CHEMBL4251589, “4-Quinolone derivatives and their activities against Gram positive pathogens” (2018).)
